The target in the assay is muscarinic receptors in the rat central nervous system. The experiment in a line: Binding affinity at muscarinic receptors in the rat central nervous system, [^3 H]-QNB IC50. The note with it: mean from one to three experiments, each in triplicate. An excerpt: Binding affinities and agonist activity in a series of
amidine derivatives at muscarinic receptors in the rat
central nervous system. Data represent the mean from one
to three experiments, each performed in triplicate.

Molecules are shown by their SMILES. Structures can show the parent of a compound that is named as a salt.

As a reminder, the IC50 is the concentration needed to halve the response being measured. Higher therefore signals a need for much substance. With `CN(C)NC(=O)C1CN=C(N)NC1` (stereo not shown) [CDD-0126-A, 2-Amino-1,4,5,6-tetrahydropyrimidine-5-carboxylic-(N,N-dimethyl)hydrazide HCl], the IC50 is 50 µM.

The values above are taken from patent publication US5618818A, “Muscarinic agonist compounds” (The University of Toledo, priority 1996, dated 1997).
